“And” between values parts separate entries of the source, which are not always exact repeats. Equal values may be shown once.
What was measured:
MAPK12 (p38 gamma, ERK3) = molecular target: T1, MAPK12 (p38 gamma, ERK3) (Homo sapiens, UniProt P53778); assay: Selectivity panel MAPK12; assay type: biochemical; conditions: 5 µM inhibitor
T1 construct: purchased Life Technologies (Invitrogen SelectScreen); Dyrk1A, Dyrk2 and CK2α in-house or gifts

PASK = molecular target: T2, PASK (Homo sapiens, UniProt Q96RG2); assay: Selectivity panel PASK (CAMK); assay type: biochemical; conditions: 5 µM inhibitor; listed under CAMK
T2 construct: purchased Life Technologies (Invitrogen SelectScreen); Dyrk1A, Dyrk2 and CK2α in-house or gifts

MAP3K5 (ASK1) = molecular target: T3, MAP3K5 (ASK1) (Homo sapiens, UniProt Q99683); assay: Selectivity panel MAP3K5; assay type: biochemical; conditions: 5 µM inhibitor
T3 construct: purchased Life Technologies (Invitrogen SelectScreen); Dyrk1A, Dyrk2 and CK2α in-house or gifts

BRSK1 (SAD1) = molecular target: T4, BRSK1 (SAD1) (Homo sapiens, UniProt Q8TDC3); assay: Selectivity panel BRSK1; assay type: biochemical; conditions: 5 µM inhibitor
T4 construct: purchased Life Technologies (Invitrogen SelectScreen); Dyrk1A, Dyrk2 and CK2α in-house or gifts

MAPK9 (JNK2) = molecular target: T5, MAPK9 (JNK2) (Homo sapiens, UniProt P45984); assay: Selectivity panel MAPK9; assay type: biochemical; conditions: 5 µM inhibitor
T5 construct: purchased Life Technologies (Invitrogen SelectScreen); Dyrk1A, Dyrk2 and CK2α in-house or gifts

TGFBR1 (ALK5) = molecular target: T6, TGFBR1 (ALK5) (Homo sapiens, UniProt P36897); assay: Selectivity panel TGFBR1; assay type: biochemical; conditions: 5 µM inhibitor
T6 construct: purchased Life Technologies (Invitrogen SelectScreen); Dyrk1A, Dyrk2 and CK2α in-house or gifts

IRAK4 = molecular target: T7, IRAK4 (Homo sapiens, UniProt Q9NWZ3); assay: Selectivity panel IRAK4; assay type: biochemical; conditions: 5 µM inhibitor
T7 construct: purchased Life Technologies (Invitrogen SelectScreen); Dyrk1A, Dyrk2 and CK2α in-house or gifts

CDK1/cyclin B = molecular target: T8, CDK1/cyclin B (Homo sapiens, UniProt P06493); assay: Selectivity panel CDK1/cyclin B; assay type: biochemical; conditions: 5 µM inhibitor
T8 construct: purchased Life Technologies (Invitrogen SelectScreen); Dyrk1A, Dyrk2 and CK2α in-house or gifts
T8 sequence (P06493 whole entry): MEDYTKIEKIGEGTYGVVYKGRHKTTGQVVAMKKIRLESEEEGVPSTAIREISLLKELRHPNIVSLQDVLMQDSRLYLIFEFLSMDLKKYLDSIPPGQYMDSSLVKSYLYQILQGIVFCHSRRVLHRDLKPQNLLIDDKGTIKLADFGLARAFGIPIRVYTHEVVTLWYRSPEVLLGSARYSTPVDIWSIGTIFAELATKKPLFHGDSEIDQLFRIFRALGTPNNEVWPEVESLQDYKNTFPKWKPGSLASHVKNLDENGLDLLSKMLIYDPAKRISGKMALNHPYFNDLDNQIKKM
T8 sequence (P14635 whole entry partner): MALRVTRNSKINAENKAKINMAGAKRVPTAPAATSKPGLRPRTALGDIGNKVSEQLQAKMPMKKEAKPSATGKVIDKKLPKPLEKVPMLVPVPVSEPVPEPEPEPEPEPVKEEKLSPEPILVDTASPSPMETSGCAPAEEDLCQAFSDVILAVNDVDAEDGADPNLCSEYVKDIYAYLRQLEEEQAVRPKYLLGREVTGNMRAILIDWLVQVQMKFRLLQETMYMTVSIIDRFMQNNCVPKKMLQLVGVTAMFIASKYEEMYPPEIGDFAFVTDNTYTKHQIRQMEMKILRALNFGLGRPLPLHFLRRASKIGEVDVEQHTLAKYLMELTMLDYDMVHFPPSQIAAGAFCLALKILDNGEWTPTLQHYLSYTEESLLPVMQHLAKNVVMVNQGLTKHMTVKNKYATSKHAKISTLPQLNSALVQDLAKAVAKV

AXL = molecular target: T9, AXL (Homo sapiens, UniProt P30530); assay: Selectivity panel AXL; assay type: biochemical; conditions: 5 µM inhibitor
T9 construct: purchased Life Technologies (Invitrogen SelectScreen); Dyrk1A, Dyrk2 and CK2α in-house or gifts

CDK5 = molecular target: T10, CDK5 (Homo sapiens, UniProt Q00535); assay: Selectivity panel CDK5; assay type: biochemical; conditions: 5 µM inhibitor
T10 construct: purchased Life Technologies (Invitrogen SelectScreen); Dyrk1A, Dyrk2 and CK2α in-house or gifts
T10 sequence (Q00535 whole entry): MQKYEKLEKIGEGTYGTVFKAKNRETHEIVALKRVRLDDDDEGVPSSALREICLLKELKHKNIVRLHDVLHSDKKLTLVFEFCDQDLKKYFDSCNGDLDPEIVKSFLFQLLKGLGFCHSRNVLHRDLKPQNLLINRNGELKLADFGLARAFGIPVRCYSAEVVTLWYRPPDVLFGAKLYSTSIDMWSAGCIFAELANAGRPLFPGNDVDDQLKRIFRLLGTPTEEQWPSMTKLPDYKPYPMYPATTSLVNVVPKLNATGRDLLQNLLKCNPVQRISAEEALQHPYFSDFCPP
T10 sequence (Q15078 whole entry partner): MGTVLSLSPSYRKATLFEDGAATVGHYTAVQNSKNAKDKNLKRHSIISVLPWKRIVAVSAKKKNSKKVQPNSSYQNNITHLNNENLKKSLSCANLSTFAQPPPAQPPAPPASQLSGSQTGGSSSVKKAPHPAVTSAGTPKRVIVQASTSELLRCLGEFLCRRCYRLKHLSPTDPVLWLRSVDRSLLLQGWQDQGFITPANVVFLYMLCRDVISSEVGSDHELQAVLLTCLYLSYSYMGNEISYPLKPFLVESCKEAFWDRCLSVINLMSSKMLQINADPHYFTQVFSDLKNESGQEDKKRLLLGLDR

PRKD1 (PKC mu, PKD1) = molecular target: T11, PRKD1 (PKC mu, PKD1) (Homo sapiens, UniProt Q15139); assay: Selectivity panel PRKD1; assay type: biochemical; conditions: 5 µM inhibitor
T11 construct: purchased Life Technologies (Invitrogen SelectScreen); Dyrk1A, Dyrk2 and CK2α in-house or gifts

MAP3K14 (NIK) = molecular target: T12, MAP3K14 (NIK) (Homo sapiens, UniProt Q99558); assay: Selectivity panel MAP3K14; assay type: biochemical; conditions: 5 µM inhibitor
T12 construct: purchased Life Technologies (Invitrogen SelectScreen); Dyrk1A, Dyrk2 and CK2α in-house or gifts

MAPK8 (JNK1) = molecular target: T13, MAPK8 (JNK1) (Homo sapiens, UniProt P45983); assay: Selectivity panel MAPK8; assay type: biochemical; conditions: 5 µM inhibitor
T13 construct: purchased Life Technologies (Invitrogen SelectScreen); Dyrk1A, Dyrk2 and CK2α in-house or gifts

PTK6 (Brk) = molecular target: T14, PTK6 (Brk) (Homo sapiens, UniProt Q13882); assay: Selectivity panel PTK6; assay type: biochemical; conditions: 5 µM inhibitor
T14 construct: purchased Life Technologies (Invitrogen SelectScreen); Dyrk1A, Dyrk2 and CK2α in-house or gifts

[1] = Metabolic Stability Assay; conditions: male, Sprague-Dawley, rat, liver microsomes
Dyrk1B = molecular target: T15, Dyrk1B (Homo sapiens, UniProt Q9Y463); assay: Dyrk1B kinase assay (32P-ATP, Woodtide); assay type: biochemical; conditions: for IC50: 100 µM ATP; for inhibition at 5 µM: read-out: percentage of inhibition Dyrk1B; for Kd: calculated with Cheng-Prussoff equation, KM ATP 59 µM
T15 construct: purchased Life Technologies PV4649 (LOT # 877059G)
T15 sequence (Q9Y463 whole entry): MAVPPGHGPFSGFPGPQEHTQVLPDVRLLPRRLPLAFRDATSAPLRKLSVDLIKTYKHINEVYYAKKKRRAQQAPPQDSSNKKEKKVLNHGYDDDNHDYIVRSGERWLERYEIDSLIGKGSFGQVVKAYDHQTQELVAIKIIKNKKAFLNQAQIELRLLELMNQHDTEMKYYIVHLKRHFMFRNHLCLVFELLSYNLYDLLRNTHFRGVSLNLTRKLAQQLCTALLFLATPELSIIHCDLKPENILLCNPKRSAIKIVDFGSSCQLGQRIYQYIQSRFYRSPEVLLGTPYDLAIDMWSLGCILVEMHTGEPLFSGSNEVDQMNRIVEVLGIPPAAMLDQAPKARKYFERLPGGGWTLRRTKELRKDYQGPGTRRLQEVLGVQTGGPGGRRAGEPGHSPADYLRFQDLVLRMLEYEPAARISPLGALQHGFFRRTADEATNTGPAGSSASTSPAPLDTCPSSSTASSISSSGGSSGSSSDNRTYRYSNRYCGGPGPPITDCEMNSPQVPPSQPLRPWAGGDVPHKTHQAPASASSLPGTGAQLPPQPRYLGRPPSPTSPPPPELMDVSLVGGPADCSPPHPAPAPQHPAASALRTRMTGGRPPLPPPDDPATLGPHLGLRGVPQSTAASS

NEK7 = molecular target: T16, NEK7 (Homo sapiens, UniProt Q8TDX7); assay: Selectivity panel NEK7; assay type: biochemical; conditions: 5 µM inhibitor
T16 construct: purchased Life Technologies (Invitrogen SelectScreen); Dyrk1A, Dyrk2 and CK2α in-house or gifts

DAPK3 (ZIPK) = molecular target: T17, DAPK3 (ZIPK) (Homo sapiens, UniProt O43293); assay: Selectivity panel DAPK3; assay type: biochemical; conditions: 5 µM inhibitor
T17 construct: purchased Life Technologies (Invitrogen SelectScreen); Dyrk1A, Dyrk2 and CK2α in-house or gifts

AURKA (Aurora A) = molecular target: T18, AURKA (Aurora A) (Homo sapiens, UniProt O14965); assay: Selectivity panel AURKA; assay type: biochemical; conditions: 5 µM inhibitor
T18 construct: purchased Life Technologies (Invitrogen SelectScreen); Dyrk1A, Dyrk2 and CK2α in-house or gifts

MAP4K2 (GCK) = molecular target: T19, MAP4K2 (GCK) (Homo sapiens, UniProt Q12851); assay: Selectivity panel MAP4K2; assay type: biochemical; conditions: 5 µM inhibitor
T19 construct: purchased Life Technologies (Invitrogen SelectScreen); Dyrk1A, Dyrk2 and CK2α in-house or gifts

DYRK3 = molecular target: T20, DYRK3 (Homo sapiens, UniProt O43781); assay: Selectivity panel DYRK3; assay type: biochemical; conditions: 5 µM inhibitor
T20 construct: purchased Life Technologies (Invitrogen SelectScreen); Dyrk1A, Dyrk2 and CK2α in-house or gifts

CHEK1 (CHK1) = molecular target: T21, CHEK1 (CHK1) (Homo sapiens, UniProt O14757); assay: Selectivity panel CHEK1; assay type: biochemical; conditions: 5 µM inhibitor
T21 construct: purchased Life Technologies (Invitrogen SelectScreen); Dyrk1A, Dyrk2 and CK2α in-house or gifts
T21 sequence (O14757 whole entry): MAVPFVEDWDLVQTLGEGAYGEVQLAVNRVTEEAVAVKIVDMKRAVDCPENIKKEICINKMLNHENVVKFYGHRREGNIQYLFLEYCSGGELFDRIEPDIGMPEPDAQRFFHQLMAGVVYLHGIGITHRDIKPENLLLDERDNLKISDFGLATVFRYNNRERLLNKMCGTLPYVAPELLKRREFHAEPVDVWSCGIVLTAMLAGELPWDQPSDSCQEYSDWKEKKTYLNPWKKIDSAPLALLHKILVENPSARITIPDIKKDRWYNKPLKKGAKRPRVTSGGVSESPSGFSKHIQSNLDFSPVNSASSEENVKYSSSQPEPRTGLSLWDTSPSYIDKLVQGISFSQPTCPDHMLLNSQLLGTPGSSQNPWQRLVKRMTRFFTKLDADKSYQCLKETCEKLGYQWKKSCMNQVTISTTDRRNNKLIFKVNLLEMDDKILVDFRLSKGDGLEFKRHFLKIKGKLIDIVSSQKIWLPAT

PAK4 = molecular target: T22, PAK4 (Homo sapiens, UniProt O96013); assay: Selectivity panel PAK4; assay type: biochemical; conditions: 5 µM inhibitor
T22 construct: purchased Life Technologies (Invitrogen SelectScreen); Dyrk1A, Dyrk2 and CK2α in-house or gifts

Clk1 = Clk1 (Homo sapiens, UniProt P49759); assay: Clk1 kinase assay (RS repeat peptide); assay type: biochemical; conditions: for IC50: 100 µM ATP; for inhibition at 5 µM: read-out: % inhibition Clk1
Chain of Clk1 (P49759 whole entry): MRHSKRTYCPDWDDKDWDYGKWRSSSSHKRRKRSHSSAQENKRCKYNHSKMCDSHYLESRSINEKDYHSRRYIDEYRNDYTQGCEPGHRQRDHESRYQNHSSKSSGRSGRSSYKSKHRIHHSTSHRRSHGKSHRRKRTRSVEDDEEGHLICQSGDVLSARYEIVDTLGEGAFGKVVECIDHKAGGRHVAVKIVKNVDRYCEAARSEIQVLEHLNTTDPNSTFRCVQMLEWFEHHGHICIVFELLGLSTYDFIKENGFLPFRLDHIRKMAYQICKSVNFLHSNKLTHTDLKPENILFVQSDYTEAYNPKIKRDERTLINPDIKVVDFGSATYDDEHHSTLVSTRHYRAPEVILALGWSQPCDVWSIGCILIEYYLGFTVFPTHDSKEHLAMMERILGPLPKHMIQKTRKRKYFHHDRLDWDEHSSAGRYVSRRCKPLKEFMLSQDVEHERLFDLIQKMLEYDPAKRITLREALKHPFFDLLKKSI

MST1 (STK4) = molecular target: T23, MST1 (STK4) (Homo sapiens, UniProt Q13043); assay: Selectivity panel MST1; assay type: biochemical; conditions: 5 µM inhibitor
T23 construct: purchased Life Technologies (Invitrogen SelectScreen); Dyrk1A, Dyrk2 and CK2α in-house or gifts
T23 sequence (Q13043 1-487): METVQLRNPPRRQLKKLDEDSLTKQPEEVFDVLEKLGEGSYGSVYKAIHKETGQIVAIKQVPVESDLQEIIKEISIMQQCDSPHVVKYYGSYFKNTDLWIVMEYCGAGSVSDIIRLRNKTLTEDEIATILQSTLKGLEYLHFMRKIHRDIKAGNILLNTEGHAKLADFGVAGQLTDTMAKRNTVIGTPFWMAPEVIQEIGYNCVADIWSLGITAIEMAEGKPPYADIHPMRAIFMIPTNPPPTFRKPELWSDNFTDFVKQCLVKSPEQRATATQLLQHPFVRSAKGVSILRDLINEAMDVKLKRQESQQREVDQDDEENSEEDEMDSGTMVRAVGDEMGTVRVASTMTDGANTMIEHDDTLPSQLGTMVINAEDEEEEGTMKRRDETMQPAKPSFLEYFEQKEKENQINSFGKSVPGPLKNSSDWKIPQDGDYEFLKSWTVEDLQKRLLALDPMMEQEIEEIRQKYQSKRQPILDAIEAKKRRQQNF

PKCβ = molecular target: T24, PKCβ (Homo sapiens, UniProt P05771); assay: Selectivity panel PKCβ; assay type: biochemical; conditions: 5 µM inhibitor
T24 construct: purchased Life Technologies (Invitrogen SelectScreen); Dyrk1A, Dyrk2 and CK2α in-house or gifts
T24 sequence (P05771 whole entry): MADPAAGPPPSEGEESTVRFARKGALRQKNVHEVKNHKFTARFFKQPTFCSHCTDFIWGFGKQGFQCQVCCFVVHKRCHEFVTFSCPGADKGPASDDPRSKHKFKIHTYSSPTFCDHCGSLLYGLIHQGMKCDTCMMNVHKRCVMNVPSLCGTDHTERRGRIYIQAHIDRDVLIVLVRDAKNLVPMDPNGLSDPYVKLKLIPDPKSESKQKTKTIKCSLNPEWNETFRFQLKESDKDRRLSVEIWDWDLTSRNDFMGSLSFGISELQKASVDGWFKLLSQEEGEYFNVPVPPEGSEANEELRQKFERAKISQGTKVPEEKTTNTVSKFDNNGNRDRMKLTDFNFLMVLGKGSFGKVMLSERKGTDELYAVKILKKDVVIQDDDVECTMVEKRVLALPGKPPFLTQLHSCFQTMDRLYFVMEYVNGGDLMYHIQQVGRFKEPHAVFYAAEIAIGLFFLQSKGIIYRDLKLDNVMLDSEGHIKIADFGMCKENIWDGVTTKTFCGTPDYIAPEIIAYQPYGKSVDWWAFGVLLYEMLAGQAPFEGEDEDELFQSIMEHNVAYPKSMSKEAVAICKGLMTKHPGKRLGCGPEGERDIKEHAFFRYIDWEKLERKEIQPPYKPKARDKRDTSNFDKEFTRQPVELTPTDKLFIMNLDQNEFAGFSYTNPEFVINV

ZAK = molecular target: T25, ZAK (Homo sapiens, UniProt Q9NYL2); assay: Selectivity panel ZAK; assay type: biochemical; conditions: 5 µM inhibitor
T25 construct: purchased Life Technologies (Invitrogen SelectScreen); Dyrk1A, Dyrk2 and CK2α in-house or gifts

[2] = molecular target: T26, (Homo sapiens, UniProt Q9UEW8); assay: Selectivity panel PASK (STLK3); assay type: biochemical; conditions: 5 µM inhibitor; listed under STE
T26 construct: purchased Life Technologies (Invitrogen SelectScreen); Dyrk1A, Dyrk2 and CK2α in-house or gifts

PRKCE (PKC epsilon) = molecular target: T27, PRKCE (PKC epsilon) (Homo sapiens, UniProt Q02156); assay: Selectivity panel PRKCE; assay type: biochemical; conditions: 5 µM inhibitor
T27 construct: purchased Life Technologies (Invitrogen SelectScreen); Dyrk1A, Dyrk2 and CK2α in-house or gifts
T27 sequence (Q02156 whole entry): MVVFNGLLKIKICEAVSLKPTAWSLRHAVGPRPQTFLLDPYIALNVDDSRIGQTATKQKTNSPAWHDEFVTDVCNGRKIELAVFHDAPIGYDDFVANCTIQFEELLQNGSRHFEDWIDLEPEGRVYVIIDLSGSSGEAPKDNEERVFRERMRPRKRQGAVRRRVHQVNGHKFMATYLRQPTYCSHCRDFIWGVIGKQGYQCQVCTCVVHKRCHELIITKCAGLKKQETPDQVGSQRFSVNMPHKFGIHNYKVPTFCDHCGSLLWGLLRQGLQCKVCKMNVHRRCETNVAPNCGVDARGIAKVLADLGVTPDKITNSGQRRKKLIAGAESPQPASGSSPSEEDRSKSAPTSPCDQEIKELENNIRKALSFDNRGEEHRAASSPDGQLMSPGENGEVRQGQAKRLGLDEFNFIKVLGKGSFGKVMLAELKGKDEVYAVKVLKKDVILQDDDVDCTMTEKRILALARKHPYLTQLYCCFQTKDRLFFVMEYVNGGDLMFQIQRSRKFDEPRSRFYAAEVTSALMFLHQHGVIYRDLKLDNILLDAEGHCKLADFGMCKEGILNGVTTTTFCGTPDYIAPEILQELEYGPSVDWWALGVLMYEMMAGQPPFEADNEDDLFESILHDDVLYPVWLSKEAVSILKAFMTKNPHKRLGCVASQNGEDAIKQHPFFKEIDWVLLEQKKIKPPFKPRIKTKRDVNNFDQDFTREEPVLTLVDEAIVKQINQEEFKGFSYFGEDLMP

HIPK4 = molecular target: T28, HIPK4 (Homo sapiens, UniProt Q8NE63); assay: Selectivity panel HIPK4; assay type: biochemical; conditions: 5 µM inhibitor
T28 construct: purchased Life Technologies (Invitrogen SelectScreen); Dyrk1A, Dyrk2 and CK2α in-house or gifts

MAPK10 (JNK3) = molecular target: T29, MAPK10 (JNK3) (Homo sapiens, UniProt P53779); assay: Selectivity panel MAPK10; assay type: biochemical; conditions: 5 µM inhibitor
T29 construct: purchased Life Technologies (Invitrogen SelectScreen); Dyrk1A, Dyrk2 and CK2α in-house or gifts

CaMK1 = molecular target: T30, CaMK1 (Homo sapiens, UniProt Q14012); assay: Selectivity panel CaMK1; assay type: biochemical; conditions: 5 µM inhibitor
T30 construct: purchased Life Technologies (Invitrogen SelectScreen); Dyrk1A, Dyrk2 and CK2α in-house or gifts
T30 sequence (Q14012 whole entry): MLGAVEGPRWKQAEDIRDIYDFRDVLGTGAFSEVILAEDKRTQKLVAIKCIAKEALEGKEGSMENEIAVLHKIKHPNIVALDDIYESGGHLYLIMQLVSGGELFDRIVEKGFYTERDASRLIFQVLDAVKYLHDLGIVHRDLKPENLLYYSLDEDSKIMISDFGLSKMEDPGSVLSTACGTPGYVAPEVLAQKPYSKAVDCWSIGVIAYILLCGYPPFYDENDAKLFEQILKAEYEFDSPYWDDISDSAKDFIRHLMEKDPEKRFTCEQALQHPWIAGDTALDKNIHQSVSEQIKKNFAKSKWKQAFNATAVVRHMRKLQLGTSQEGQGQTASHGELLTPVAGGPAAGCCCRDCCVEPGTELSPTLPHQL

EPHB3 = molecular target: T31, EPHB3 (Homo sapiens, UniProt P54753); assay: Selectivity panel EPHB3; assay type: biochemical; conditions: 5 µM inhibitor
T31 construct: purchased Life Technologies (Invitrogen SelectScreen); Dyrk1A, Dyrk2 and CK2α in-house or gifts

MAP2K1 (MEK1) = molecular target: T32, MAP2K1 (MEK1) (Homo sapiens, UniProt Q02750); assay: Selectivity panel MAP2K1; assay type: biochemical; conditions: 5 µM inhibitor
T32 construct: purchased Life Technologies (Invitrogen SelectScreen); Dyrk1A, Dyrk2 and CK2α in-house or gifts

TNK2 (ACK) = molecular target: T33, TNK2 (ACK) (Homo sapiens, UniProt Q07912); assay: Selectivity panel TNK2; assay type: biochemical; conditions: 5 µM inhibitor
T33 construct: purchased Life Technologies (Invitrogen SelectScreen); Dyrk1A, Dyrk2 and CK2α in-house or gifts

## c1cncc(-c2csc(-c3cncs3)c2)c1 [Compound 48, 3-[5-(1,3-thiazol-5-yl)thiophen-3-yl]pyridine]
MAPK12 (p38 gamma, ERK3)
  inhibition at 5 µM: 3%
PASK
  inhibition at 5 µM: 27%
MAP3K5 (ASK1)
  inhibition at 5 µM: 6%
BRSK1 (SAD1)
  inhibition at 5 µM: -4%
MAPK9 (JNK2)
  inhibition at 5 µM: -6%
TGFBR1 (ALK5)
  inhibition at 5 µM: 22%
IRAK4
  inhibition at 5 µM: -11%
CDK1/cyclin B
  inhibition at 5 µM: 42%
AXL
  inhibition at 5 µM: -11%
CDK5
  inhibition at 5 µM: 44%
PRKD1 (PKC mu, PKD1)
  inhibition at 5 µM: -5%
MAP3K14 (NIK)
  inhibition at 5 µM: 5%
MAPK8 (JNK1)
  inhibition at 5 µM: 5%
PTK6 (Brk)
  inhibition at 5 µM: 34%
[1]
  CLhep predicted at 0.5 µM: 47 mL/min/kg
  half-life at 0.5 µM: 31 min
Dyrk1B
  IC50: 70 nM
  inhibition at 5 µM: 100%
  Kd: 26 nM
NEK7
  inhibition at 5 µM: -7%
DAPK3 (ZIPK)
  inhibition at 5 µM: -5%
AURKA (Aurora A)
  inhibition at 5 µM: 2%
MAP4K2 (GCK)
  inhibition at 5 µM: 6%
DYRK3
  inhibition at 5 µM: 69%
CHEK1 (CHK1)
  inhibition at 5 µM: 7%
PAK4
  inhibition at 5 µM: 4%
Clk1
  IC50: 110 nM
  inhibition at 5 µM: 94%
MST1 (STK4)
  inhibition at 5 µM: 9%
PKCβ
  inhibition at 5 µM: 1%
ZAK
  inhibition at 5 µM: 11%
[2]
  inhibition at 5 µM: 27%
PRKCE (PKC epsilon)
  inhibition at 5 µM: -5%
HIPK4
  inhibition at 5 µM: 7%
MAPK10 (JNK3)
  inhibition at 5 µM: 2%
CaMK1
  inhibition at 5 µM: 5%
EPHB3
  inhibition at 5 µM: 1%
MAP2K1 (MEK1)
  inhibition at 5 µM: 2%
TNK2 (ACK)
  inhibition at 5 µM: 8%

## Cn1cc(-c2csc(-c3cccnc3)c2)cn1 [Compound 30, 3-[4-(1-methyl-1H-pyrazol-4-yl)thiophen-2-yl]pyridine]
CDK5
  inhibition at 5 µM: 33%
[1]
  CLhep predicted at 0.5 µM: 34 mL/min/kg
  half-life at 0.5 µM: 53 min
Dyrk1B
  IC50: 400 nM and 410 nM
  inhibition at 5 µM: 100%
  Kd: 148 nM
Clk1
  IC50: 160 nM
  inhibition at 5 µM: 92%
MST1 (STK4)
  inhibition at 5 µM: -10%
PKCβ
  inhibition at 5 µM: -8%
CaMK1
  inhibition at 5 µM: 17%

Reference: publication PMC3968014, “Design and Synthesis of a Library of Lead-Like 2,4-Bisheterocyclic Substituted Thiophenes as Selective Dyrk/Clk Inhibitors” (PLoS ONE, 2014)
